According to ChEMBL document CHEMBL1140560, “Potent, selective spiropyrrolidine pyrimidinetrione inhibitors of MMP-13” (Bioorg Med Chem Lett, 2007):
Several values for one entry are separate records, joined by “and”; a condition that tells them apart may be missing. Identical values can stand only once.

Legend:
Collagenase 3 [1] = molecular target: T1, Collagenase 3 (Homo sapiens, UniProt P45452); test: Inhibition of MMP13
[2] = Chemical stability assessed as half life in phosphate buffer saline at pH 7.2; format: physicochemical; conditions: phosphate buffered saline
[3] = plasma Clearance in rat; format: ADME, organism-based
[4] = Volume of distribution at steady state in rat; format: ADME, organism-based; conditions: in vivo, read-out: Vdss
[5] = Half life in rat; format: ADME, organism-based; conditions: in vivo
Collagenase 3 [6] = molecular target: T1, Collagenase 3; test: Inhibition of MMP13-mediated bovine nasal cartilage degradation assessed as hydroxyprole release; format: functional, tissue-based
Hamster = test: Inhibition of human MMP13-induced cartilage damage in hamster at 10 mg/kg, po; format: functional; conditions: Cricetinae
Rattus norvegicus [7] = test: Toxicity in rat assessed as induction of fibroplasia at 30 mg/kg, bid; format: organism-based; set-up: dose 30 mg/kg; conditions: in vivo
Rattus norvegicus [8] = test: Toxicity in rat assessed as induction of fibroplasia at 100 mg/kg, bid; format: organism-based; set-up: dose 100 mg/kg; conditions: in vivo
Rattus norvegicus [9] = test: Toxicity in rat assessed as induction of fibroplasia at 300 mg/kg, bid; format: organism-based; set-up: dose 300 mg/kg; conditions: in vivo
Rattus norvegicus [10] = test: Toxicity in rat assessed as induction of fibroplasia at 800 mg/kg, bid; format: organism-based; set-up: dose 800 mg/kg; conditions: in vivo
[11] = Cmax in rat at 300 mg/kg, bid; format: ADME, organism-based; set-up: dose 300 mg/kg; conditions: in vivo
[12] = Cmax in rat at 800 mg/kg, bid; format: ADME, organism-based; set-up: dose 800 mg/kg; conditions: in vivo

CCOCCC1(Oc2ccc(Oc3ccc(-c4nc(-c5cccc(F)c5)co4)cc3)cc2)C(=O)NC(=O)NC1=O
IC50 (Collagenase 3 [1]): 0.35 nM

CCOCCC1(Oc2ccc(Oc3ccc(-c4nc(-c5cccc(C#N)c5)co4)cc3)cc2)C(=O)NC(=O)NC1=O
IC50 (Collagenase 3 [1]): 0.52 nM

CCOCCC1(Oc2ccc(Oc3ccc(-c4nc(-c5ccc(C#N)cc5)co4)cc3)cc2)C(=O)NC(=O)NC1=O
IC50 (Collagenase 3 [1]): 0.43 nM

CCOCCC1(Oc2ccc(Oc3ccc(F)cc3)cc2)C(=O)NC(=O)NC1=O
IC50 (Collagenase 3 [1]): 0.6 nM

CCOCCC1(Oc2ccc(Oc3ccc(-c4nc5ccccc5[nH]4)cc3)cc2)C(=O)NC(=O)NC1=O
IC50 (Collagenase 3 [1]): 0.49 nM

O=C1NC(=O)C2(CCCC(=O)N2c2ccc(Oc3ccc(F)cc3)nc2)C(=O)N1
IC50 (Collagenase 3 [1]): 11.7 nM

O=C1NC(=O)C2(CNC(=O)N2c2ccc(Oc3ccc(F)cc3)nc2)C(=O)N1
IC50 (Collagenase 3 [1]): 15.1 nM

CCOCCC1(Oc2ccc(Oc3ccc(-c4nc5ccc(Cl)cc5[nH]4)cc3)cc2)C(=O)NC(=O)NC1=O
IC50 (Collagenase 3 [1]): 0.96 nM

O=C1NC(=O)C2(CCCN2c2ccc(Oc3ccc(-c4nc5ccc(Cl)cc5[nH]4)cc3)nc2)C(=O)N1
IC50 (Collagenase 3 [1]): 0.1 nM

CN1CC2(C(=O)NC(=O)NC2=O)N(c2ccc(Oc3ccc(F)cc3)nc2)C1=O
IC50 (Collagenase 3 [1]): 12 nM

O=C1NC(=O)C2(CCC(=O)N2c2ccc(Oc3ccc(F)cc3)nc2)C(=O)N1
IC50 (Collagenase 3 [1]): 3.49 nM | half-life [2]: 91.2 h

O=C1NC(=O)C2(CCS(=O)(=O)N2c2ccc(Oc3ccc(F)cc3)nc2)C(=O)N1
IC50 (Collagenase 3 [1]): 138 nM | half-life [2]: 26.4 h

O=C1NC(=O)C2(CCCN2c2ccc(Oc3ccc(-c4nc(-c5ccccc5F)co4)cc3)nc2)C(=O)N1
IC50 (Collagenase 3 [1]): 0.16 nM

CCOCCC1(Oc2ccc(Oc3ccc(-c4nc5ccc(F)cc5[nH]4)cc3)cc2)C(=O)NC(=O)NC1=O
IC50 (Collagenase 3 [1]): 0.4 nM

O=C1NC(=O)C2(CCCN2c2ccc(Oc3ccc(-c4nc(-c5cccc(F)c5)co4)cc3)nc2)C(=O)N1
IC50 (Collagenase 3 [1]): 0.09 nM

O=C1NC(=O)C2(CCCN2c2ccc(Oc3ccc(-c4nc5ccc(F)cc5[nH]4)cc3)nc2)C(=O)N1
IC50 (Collagenase 3 [1]): 0.08 nM

N#Cc1ccc(-c2coc(-c3ccc(Oc4ccc(N5CCCC56C(=O)NC(=O)NC6=O)cn4)cc3)n2)cc1
IC50 (Collagenase 3 [1]): 0.05 nM

N#Cc1cccc(-c2coc(-c3ccc(Oc4ccc(N5CCCC56C(=O)NC(=O)NC6=O)cn4)cc3)n2)c1
IC50 (Collagenase 3 [1]): 0.11 nM

CCOCCC1(Oc2ccc(Oc3ccc(F)cc3)nc2)C(=O)NC(=O)NC1=O
IC50 (Collagenase 3 [1]): 8.9 nM

CCOCCC1(Nc2ccc(Oc3ccc(F)cc3)nc2)C(=O)NC(=O)NC1=O
IC50 (Collagenase 3 [1]): 2.9 nM

O=C1NC(=O)C2(CCCN2c2ccc(Oc3ccc(-c4nc(-c5ccc(F)cc5)co4)cc3)nc2)C(=O)N1
IC50 (Collagenase 3 [1]): 0.12 nM | clearance [3]: 3.9 mL/min/kg | Vd [4]: 1.3 L/kg | half-life [5]: 4.5 h | IC50 (Collagenase 3 [6]): 12 nM | inhibition in vivo at 10 mg/kg (Hamster): > 80% | Activity (Rattus norvegicus [7]): Non-toxic | Activity (Rattus norvegicus [8]): Non-toxic | Activity (Rattus norvegicus [9]): Toxic | Activity (Rattus norvegicus [10]): Toxic | Cmax [11]: 63 µg/mL | Cmax [12]: 52 µg/mL

O=C1NC(=O)C2(CCCN2c2ccc(Oc3ccc(-c4nc5ccccc5[nH]4)cc3)nc2)C(=O)N1
IC50 (Collagenase 3 [1]): 0.11 nM

O=C1NC(=O)C2(CCCN2c2ccc(Oc3ccc(F)cc3)nc2)C(=O)N1
IC50 (Collagenase 3 [1]): 1.6 nM and 1.57 nM

CC1(C)CC2(C(=O)NC(=O)NC2=O)N(c2ccc(Oc3ccc(F)cc3)nc2)C1=O
IC50 (Collagenase 3 [1]): 7.33 nM | half-life [2]: 67.2 h

O=C1NC(=O)C2(CCCN2c2ccc(Oc3ccc(Br)cc3)nc2)C(=O)N1
IC50 (Collagenase 3 [1]): 0.6 nM | half-life [2]: > 24000 h
